Laboratory results as given in patent US8765941B2 (Kino Pharma, Inc., priority 2008, dated 2014).

Assays:
LuHCV cells = assay: Evaluation of cell growth suppression using LuHCV cells (percentage of viable cells, reagent SF); assay type: cell-based, human; details: 48 hours, DMSO = 100%
Description: At this time, as a background absorbance, measurement was also performed for wells containing test compounds (or DMSO used as a control), but containing no cells. Each of the thus obtained background numerical values was deducted from the absorbance of a cell-containing well (measured for the same compound at the same concentration). The resulting value was designated as actual measurement of number of viable cells containing no background. […] With an average value measured for DMSO used as a control test substance designated as 100%, the percentage of the number of viable cells for each test compound was calculated.
At this time, as a background absorbance, measurement was also performed for wells containing test compounds (or containing DMSO used as a control), but containing no cells. Each of the thus obtained background numerical values was deducted from the absorbance of a cell-containing well (measured for the same compound at the same concentration). The resulting value was designated as actual measurement of number of viable cells containing no background. […] By using a value measured upon addition of DMSO used as a control test substance designated as 100%, the percentage of the number of viable cells for each test compound was calculated. Table 1-2 and FIG. 2B show the percentage of the number of viable cells (cell viability (% control)) for each test compound at each concentration.

[1] = test system: intracellular HCV protein (NS3-NS4-NS5A-NS5B); assay: HCV viral protein expression assay using LuHCV cells (luciferase activity); details: for activity at 10 µM / activity at 20 µM: Hepatitis C virus, 48 h, read-out: luc activity (% control)
Description: As an HCV viral protein expression assay, screening was performed for compounds having anti-HCV activity using human hepatocytes with which the replication and expression of the intracellular HCV protein (NS3-NS4-NS5A-NS5B) can be evaluated through determination of luciferase activity (hereinafter, referred to as LuHCV).
LuHCV cells were plated onto 96-well plates at 5×10^3 cells/50 μL/well and then incubated overnight. Test compounds were each dissolved in dimethyl sulfoxide (DMSO) and dilution series were prepared using DMSO, if necessary. On the next day of plating of LuHCV cells, a medium containing a test compound with a concentration twice the final test concentration was added at 50 μL/well. Cells were gently cultured under culture conditions of 48 hours, 37° C., and 5% CO2 (the final concentrations of the test compounds: 0, 10, and 20 μM). At this time, analysis was made using 3 test wells for each test compound and for each concentration.
Culture medium was removed after 48 hours. Glo lysis buffer (100 μL) (Promega) was added to each well and then cells were disrupted, so that a cell extract was obtained. With the use of 50 μL of the thus obtained cell extract, 50 μL of a Bright-Glo™ Luciferase Assay System (Promega) reagent was added. Luciferase activity in the extract was determined by measuring luminescence intensity for one second using a measuring device ARVO (PerkinElmer Co., Ltd.).
Based on the thus obtained numerical values of luminescence intensity, an average value for each test compound at each concentration was calculated. The luminescence intensity percentage for each test compound was calculated based on a luminescence intensity for DMSO (used as a control for test substances) as 100%.
Culture medium was removed after 48 hours. Glo Lysis buffer (100 μL) (Promega) was added to each well and then cells were disrupted, so that a cell extract was obtained. With the use of 50 μL of the thus obtained cell extract, 50 μL of a Bright-Glo™ Luciferase Assay System (Promega) reagent was added. Luciferase activity in the extract was determined by measuring luminescence intensity for one second using a measuring device ARVO (PerkinElmer Co., Ltd.).
Based on the thus obtained numerical values of luminescence intensity, an average value for each test compound at each concentration was calculated. The luminescence intensity percentage for each test compound was calculated based on a luminescence intensity of DMSO (used as a control for test substances) as 100%.

SMILES	viability (% control) (LuHCV cells; 10 μM)	viability (% control) (LuHCV cells; 20 μM)	activity at 10 µM [1] [%]	activity at 20 µM [1] [%]	luciferase activity (result in words) ([1]; 0, 10 and 20 μM, 48 hours, LuHCV cells)
O=C(Nc1cc(C(F)(F)F)ccc1N1CCC[C@H]2CCCC[C@@H]21)c1ccncc1 (relative stereo) [Compound 19, N-[2-(trans-2-azabicyclo[4.4.0]decan-2-yl)-5-(trifluoromethyl)phenyl]isonicotinamide]	99.02	91.02	51	33.5	–
FC(F)(F)c1ccc(N2CCC[C@H]3CCCC[C@@H]32)c(NC(=S)c2ccncc2)c1 (relative stereo) [Compound 21, N-[2-(trans-2-azabicyclo[4.4.0]-decan-2-yl)-5-(trifluoromethyl)phenyl]isonicotinthioamide]	94.44	93.56	56.8	34	–
FC(F)(F)c1ccc(N2CC[C@H]3CCCC[C@@H]3C2)c(NC(=S)c2ccncc2)c1 (relative stereo) [Compound 22, N-[2-(trans-3-azabicyclo[4.4.0]decan-3-yl)-5-(trifluoromethyl)phenyl]isonicotinthioamide]	104.65	96.39	42.6	21.9	–
O=C(NC(=S)Nc1cc(C(F)(F)F)ccc1N1CC[C@H]2CCCC[C@@H]2C1)c1ccccc1 (relative stereo) [Compound 23, 1-benzoyl-3-[2-(trans-3-azabicyclo[4.4.0]decan-3-yl)-5-(trifluoromethyl)phenyl]thiourea]	106.72	104.93	64	49.4	–
FC(F)(F)c1ccc(N2CCCCC2)c(NC(=S)c2ccncc2)c1 [Compound 2, N-[2-(1-piperidinyl)-5-(trifluoromethyl)phenyl]isonicotinthioamide]	–	–	–	–	Decreases in luciferase activity
O=C(NC(=S)Nc1cc(C(F)(F)F)ccc1N1CCCCC1)c1cccnc1 [Compound 3, 1-nicotinoyl-3-[2-(1-piperidinyl)-5-(trifluoromethyl)phenyl]thiourea]	103.79	93.82	69.3	43.2	–
O=C(NC(=S)Nc1cc(C(F)(F)F)ccc1N1CCCCCC1)c1cccnc1 [Compound 4, N-nicotinoyl-N′[2-(azacycloheptan-1-yl)-5-(trifluoromethyl)phenyl]thiourea]	93.86	89.76	65.8	44.5	–
O=C(NC(=S)Nc1cc(C(F)(F)F)ccc1N1CCCCCCC1)c1ccncc1 [Compound 7, N-isonicotinoyl-N′-[2-(azacyclooctan-1-yl)-5-(trifluoromethyl)phenyl]thiourea]	76.97	71.85	30.7	16.4	–
O=C(NC(=O)c1cccnc1)Nc1cc(C(F)(F)F)ccc1N1CCCCCCC1 [Compound 8, N-nicotinoyl-N′-[2-(azacyclooctan-1-yl)-5-(trifluoro-methyl)phenyl]urea]	77.35	77.81	55.7	58	–
O=C(NC(=S)Nc1cc(F)ccc1N1CCCCCCC1)c1cccnc1 [Compound 9]	82.79	73.39	33.6	26	–
